Data: ChEMBL document CHEMBL3885861, “Open TG-GATES”

Species on record: Rattus norvegicus
Assay: Open TG-GATES - Regimen: Daily Repeat
Format: toxicity, organism-based, Sprague-Dawley
Design: regimen Daily Repeat, gender Male, age 6 weeks
Conditions: in vivo, po, route gavage; for APTT / Bas / Eos / Fbg / Hb / Ht / Lym / MCH / MCHC / MCV / Mono / Neu / PT / Plat / RBC / Ret / WBC: tissue Blood; for KIDNEY_L / KIDNEY_R / KIDNEY_TOTAL: tissue Kidney; for LIVER: tissue Liver; for A/G / ALP / ALT / AST / BUN / CRE / Ca / Cl / DBIL / GLC / IP / K / LDH / Na / PL / RALB / TBIL / TC / TG / TP / gamma-GTP: tissue Plasma
[1] = 0 mg/kg, 72 h, dose level Control, time 3 day
[2] = 0 mg/kg, […], dose level Control, time 7 day
[3] = 0 mg/kg, […], dose level Control, time 14 day
[4] = 0 mg/kg, […], dose level Control, time 28 day
[5] = 1 mg/kg, 72 h, dose level Low, time 3 day
[6] = 1 mg/kg, […], dose level Low, time 7 day
[7] = 1 mg/kg, […], dose level Low, time 14 day
[8] = 1 mg/kg, […], dose level Low, time 28 day

COc1ccc2c(c1)c(CC(=O)O)c(C)n2C(=O)c1ccc(Cl)cc1 [INDOMETHACIN]
TERMINAL_BW [1]: 239.9 g | APTT [1]: 17 s | Bas [1]: 0% | Eos [1]: 0.8% | Fbg [1]: 211.8 mg/dL | Hb [1]: 13.4 g/dL | Ht [1]: 40.3% | Lym [1]: 81.4% | MCH [1]: 21.4 pg | MCHC [1]: 33.1% | MCV [1]: 64.6 fL | Mono [1]: 8% | Neu [1]: 10.2% | PT [1]: 11.2 s | Plat [1]: 122 x10_4/uL | RBC [1]: 625.2 x10_4/ul | Ret [1]: 7.6% | WBC [1]: 117.2 x10_2/uL | KIDNEY_L [1]: 1 g | KIDNEY_R [1]: 1.1 g | KIDNEY_TOTAL [1]: 2.1 g | LIVER [1]: 11.9 g | A/G [1]: 2.1 | ALP [1]: 1154.8 IU/L | ALT [1]: 33.2 IU/L | AST [1]: 60 IU/L | BUN [1]: 15.4 mg/dL | CRE [1]: 0.6 mg/dL | Ca [1]: 10.5 mg/dL | Cl [1]: 107 meq/L | DBIL [1]: 0.032 mg/dL | GLC [1]: 201.8 mg/dL | IP [1]: 7.4 mg/dL | K [1]: 4.8 meq/L | LDH [1]: 95.2 IU/L | Na [1]: 139.6 meq/L | PL [1]: 144.4 mg/dL | RALB [1]: 3.9 g/dL | TBIL [1]: 0.4 mg/dL | TC [1]: 74.2 mg/dL | TG [1]: 86.8 mg/dL | TP [1]: 5.7 g/dL | gamma-GTP [1]: 1 IU/L | TERMINAL_BW [2]: 269.3 g | TERMINAL_BW [3]: 339.4 g | TERMINAL_BW [4]: 433.9 g | APTT [2]: 16.5 s | Bas [2]: 0% | Eos [2]: 1% | Fbg [2]: 223.6 mg/dL | Hb [2]: 14.1 g/dL | Ht [2]: 42.4% | Lym [2]: 82% | MCH [2]: 20.9 pg | MCHC [2]: 33.3% | MCV [2]: 62.8 fL | Mono [2]: 6.8% | Neu [2]: 10% | PT [2]: 11.8 s | Plat [2]: 106.3 x10_4/uL | RBC [2]: 675 x10_4/ul | Ret [2]: 5.7% | WBC [2]: 126.2 x10_2/uL | APTT [3]: 16.7 s | Bas [3]: 0% | Eos [3]: 0.6% | Fbg [3]: 228.8 mg/dL | Hb [3]: 13.9 g/dL | Ht [3]: 41.7% | Lym [3]: 84.2% | MCH [3]: 20.1 pg | MCHC [3]: 33.4% | MCV [3]: 60.3 fL | Mono [3]: 5% | Neu [3]: 10.4% | PT [3]: 11.8 s | Plat [3]: 110.6 x10_4/uL | RBC [3]: 691.2 x10_4/ul | Ret [3]: 5.1% | WBC [3]: 148.4 x10_2/uL | APTT [4]: 15.3 s | Bas [4]: 0% | Eos [4]: 0.8% | Fbg [4]: 256.8 mg/dL | Hb [4]: 14.6 g/dL | Ht [4]: 44.4% | Lym [4]: 86.8% | MCH [4]: 18.5 pg | MCHC [4]: 32.9% | MCV [4]: 56.1 fL | Mono [4]: 4.4% | Neu [4]: 7.8% | PT [4]: 11.8 s | Plat [4]: 112.3 x10_4/uL | RBC [4]: 792.2 x10_4/ul | Ret [4]: 3.2% | WBC [4]: 153.4 x10_2/uL | KIDNEY_L [2]: 1.2 g | KIDNEY_R [2]: 1.2 g | KIDNEY_TOTAL [2]: 2.4 g | KIDNEY_L [3]: 1.3 g | KIDNEY_R [3]: 1.3 g | KIDNEY_TOTAL [3]: 2.6 g | KIDNEY_L [4]: 1.5 g | KIDNEY_R [4]: 1.5 g | KIDNEY_TOTAL [4]: 3 g | LIVER [2]: 13.2 g | LIVER [3]: 16 g | LIVER [4]: 19.6 g | A/G [2]: 2 | ALP [2]: 925.4 IU/L | ALT [2]: 33 IU/L | AST [2]: 63.2 IU/L | BUN [2]: 18.4 mg/dL | CRE [2]: 0.5 mg/dL | Ca [2]: 10.7 mg/dL | Cl [2]: 106.8 meq/L | DBIL [2]: 0.012 mg/dL | GLC [2]: 202.2 mg/dL | IP [2]: 8.3 mg/dL | K [2]: 5 meq/L | LDH [2]: 97.4 IU/L | Na [2]: 139 meq/L | PL [2]: 144.8 mg/dL | RALB [2]: 4 g/dL | TBIL [2]: 0.3 mg/dL | TC [2]: 69.2 mg/dL | TG [2]: 126.8 mg/dL | TP [2]: 6.1 g/dL | gamma-GTP [2]: 0.6 IU/L | A/G [3]: 1.8 | ALP [3]: 780.8 IU/L | ALT [3]: 30.6 IU/L | AST [3]: 60.6 IU/L | BUN [3]: 19.8 mg/dL | CRE [3]: 0.6 mg/dL | Ca [3]: 10.4 mg/dL | Cl [3]: 105.6 meq/L | DBIL [3]: 0.012 mg/dL | GLC [3]: 201.2 mg/dL | IP [3]: 8.5 mg/dL | K [3]: 4.8 meq/L | LDH [3]: 82.6 IU/L | Na [3]: 138.2 meq/L | PL [3]: 147.6 mg/dL | RALB [3]: 3.9 g/dL | TBIL [3]: 0.3 mg/dL | TC [3]: 72.4 mg/dL | TG [3]: 130.4 mg/dL | TP [3]: 6.2 g/dL | gamma-GTP [3]: 1.6 IU/L | A/G [4]: 1.9 | ALP [4]: 622.6 IU/L | ALT [4]: 27.6 IU/L | AST [4]: 56.2 IU/L | BUN [4]: 18.8 mg/dL | CRE [4]: 0.7 mg/dL | Ca [4]: 10.7 mg/dL | Cl [4]: 105.2 meq/L | DBIL [4]: 0.018 mg/dL | GLC [4]: 206.4 mg/dL | IP [4]: 7.5 mg/dL | K [4]: 4.1 meq/L | LDH [4]: 62.4 IU/L | Na [4]: 139.2 meq/L | PL [4]: 163.2 mg/dL | RALB [4]: 4.3 g/dL | TBIL [4]: 0.3 mg/dL | TC [4]: 79.6 mg/dL | TG [4]: 181.2 mg/dL | TP [4]: 6.6 g/dL | gamma-GTP [4]: 1.8 IU/L | TERMINAL_BW [5]: 239.1 g | APTT [5]: 16.8 s | Bas [5]: 0% | Eos [5]: 0.4% | Fbg [5]: 230.8 mg/dL | Hb [5]: 13.6 g/dL | Ht [5]: 40.7% | Lym [5]: 79% | MCH [5]: 21.7 pg | MCHC [5]: 33.5% | MCV [5]: 65 fL | Mono [5]: 7.6% | Neu [5]: 12.8% | PT [5]: 10.9 s | Plat [5]: 102.8 x10_4/uL | RBC [5]: 626.4 x10_4/ul | Ret [5]: 7% | WBC [5]: 89 x10_2/uL | KIDNEY_L [5]: 1.1 g | KIDNEY_R [5]: 1.1 g | KIDNEY_TOTAL [5]: 2.2 g | LIVER [5]: 11.8 g | A/G [5]: 1.9 | ALP [5]: 1210.2 IU/L | ALT [5]: 35.2 IU/L | AST [5]: 64.4 IU/L | BUN [5]: 16.8 mg/dL | CRE [5]: 0.6 mg/dL | Ca [5]: 10.6 mg/dL | Cl [5]: 105.8 meq/L | DBIL [5]: 0.032 mg/dL | GLC [5]: 196.6 mg/dL | IP [5]: 7.9 mg/dL | K [5]: 4.9 meq/L | LDH [5]: 91.4 IU/L | Na [5]: 138.8 meq/L | PL [5]: 165.2 mg/dL | RALB [5]: 3.9 g/dL | TBIL [5]: 0.3 mg/dL | TC [5]: 86 mg/dL | TG [5]: 108 mg/dL | TP [5]: 5.9 g/dL | gamma-GTP [5]: 1.2 IU/L | TERMINAL_BW [6]: 272.4 g | TERMINAL_BW [7]: 337.2 g | TERMINAL_BW [8]: 425.7 g | APTT [6]: 16.3 s | Bas [6]: 0% | Eos [6]: 0.6% | Fbg [6]: 240.2 mg/dL | Hb [6]: 13.8 g/dL | Ht [6]: 41.9% | Lym [6]: 82.8% | MCH [6]: 21.1 pg | MCHC [6]: 33.1% | MCV [6]: 63.9 fL | Mono [6]: 7.2% | Neu [6]: 9.2% | PT [6]: 11.7 s | Plat [6]: 121.9 x10_4/uL | RBC [6]: 656.8 x10_4/ul | Ret [6]: 7.2% | WBC [6]: 124.3 x10_2/uL | APTT [7]: 16.5 s | Bas [7]: 0% | Eos [7]: 0.8% | Fbg [7]: 232.4 mg/dL | Hb [7]: 14.4 g/dL | Ht [7]: 43.4% | Lym [7]: 85.4% | MCH [7]: 19.8 pg | MCHC [7]: 33.1% | MCV [7]: 59.8 fL | Mono [7]: 4.8% | Neu [7]: 9% | PT [7]: 11.6 s | Plat [7]: 119.2 x10_4/uL | RBC [7]: 726.6 x10_4/ul | Ret [7]: 4.3% | WBC [7]: 140.8 x10_2/uL | APTT [8]: 16.4 s | Bas [8]: 0% | Eos [8]: 0.8% | Fbg [8]: 249.8 mg/dL | Hb [8]: 15.2 g/dL | Ht [8]: 45.7% | Lym [8]: 83.6% | MCH [8]: 19.1 pg | MCHC [8]: 33.2% | MCV [8]: 57.5 fL | Mono [8]: 5.6% | Neu [8]: 10.6% | PT [8]: 11.8 s | Plat [8]: 113.7 x10_4/uL | RBC [8]: 795.8 x10_4/ul | Ret [8]: 2.7% | WBC [8]: 149.8 x10_2/uL | KIDNEY_L [6]: 1.1 g | KIDNEY_R [6]: 1.1 g | KIDNEY_TOTAL [6]: 2.3 g | KIDNEY_L [7]: 1.3 g | KIDNEY_R [7]: 1.3 g | KIDNEY_TOTAL [7]: 2.6 g | KIDNEY_L [8]: 1.4 g | KIDNEY_R [8]: 1.4 g | KIDNEY_TOTAL [8]: 2.8 g | LIVER [6]: 13.5 g | LIVER [7]: 16.3 g | LIVER [8]: 18.6 g | A/G [6]: 2.1 | ALP [6]: 892.6 IU/L | ALT [6]: 30.2 IU/L | AST [6]: 61.4 IU/L | BUN [6]: 20 mg/dL | CRE [6]: 0.5 mg/dL | Ca [6]: 11 mg/dL | Cl [6]: 105.6 meq/L | DBIL [6]: 0.006 mg/dL | GLC [6]: 193.2 mg/dL | IP [6]: 8.2 mg/dL | K [6]: 4.9 meq/L | LDH [6]: 89.2 IU/L | Na [6]: 139.4 meq/L | PL [6]: 156.6 mg/dL | RALB [6]: 4 g/dL | TBIL [6]: 0.4 mg/dL | TC [6]: 77.4 mg/dL | TG [6]: 149.6 mg/dL | TP [6]: 6 g/dL | gamma-GTP [6]: 1.4 IU/L
